The values below come from patent US20260103465A1, “GLYCOGEN SYNTHASE KINASE 3 INHIBITORS AND USES THEREOF” (The Broad Institute, Inc., priority 2023, published 2026).

pIC50: −log10 of the molar value. Where two headings read alike, the source gives them in different places. Some results are limits rather than exact numbers.

The target in experiment [1] is T1, GSK3a (GST-full length GSK3a) (Homo sapiens, UniProt P49840).
T1 construct: GST-full length GSK3a [SignalChem G08-10G]; purchased SignalChem G08-10G
T1 sequence (P49840 whole entry): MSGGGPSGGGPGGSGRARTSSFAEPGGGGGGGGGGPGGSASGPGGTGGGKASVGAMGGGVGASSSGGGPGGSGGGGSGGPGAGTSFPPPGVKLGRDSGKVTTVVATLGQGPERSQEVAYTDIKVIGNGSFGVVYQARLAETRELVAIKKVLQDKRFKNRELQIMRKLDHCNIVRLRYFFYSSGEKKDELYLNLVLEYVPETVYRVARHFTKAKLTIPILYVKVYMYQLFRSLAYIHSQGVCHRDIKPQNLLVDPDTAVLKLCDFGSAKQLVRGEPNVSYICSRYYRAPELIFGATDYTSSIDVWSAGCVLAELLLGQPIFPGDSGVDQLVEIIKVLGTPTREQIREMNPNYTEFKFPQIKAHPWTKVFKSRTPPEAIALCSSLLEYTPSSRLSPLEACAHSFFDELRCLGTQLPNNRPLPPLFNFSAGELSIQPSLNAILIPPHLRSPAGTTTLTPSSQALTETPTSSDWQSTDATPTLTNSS
The experiment is described as follows: GSK3a TR-FRET kinase inhibition assay. The class given is biochemical. The method in brief:
(§1)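 IC50 derived from normalized 665/615 TR-FRET signal (Tb anti-pSer641 antibody, streptavidin-d2), read after EDTA stop. Reaction: 1 nM GST-full-length enzyme, 30 min compound pre-incubation, 100 min at ambient temperature in Tris pH 7.5 with 1% DMSO, 200 nM biotinylated primed glycogen synthase peptide, ATP 2 μM to 1 mM.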
(In general: Time-resolved FRET reads energy transfer from a long-lived donor to a nearby acceptor.)

The target of experiment [2] is T2, GSK3b (GST-full length GSK3b) (Homo sapiens, UniProt P49841).
T2 construct: GST-full length GSK3b: [SignalChem G08-9G]; purchased SignalChem G08-9G
T2 sequence (P49841 whole entry): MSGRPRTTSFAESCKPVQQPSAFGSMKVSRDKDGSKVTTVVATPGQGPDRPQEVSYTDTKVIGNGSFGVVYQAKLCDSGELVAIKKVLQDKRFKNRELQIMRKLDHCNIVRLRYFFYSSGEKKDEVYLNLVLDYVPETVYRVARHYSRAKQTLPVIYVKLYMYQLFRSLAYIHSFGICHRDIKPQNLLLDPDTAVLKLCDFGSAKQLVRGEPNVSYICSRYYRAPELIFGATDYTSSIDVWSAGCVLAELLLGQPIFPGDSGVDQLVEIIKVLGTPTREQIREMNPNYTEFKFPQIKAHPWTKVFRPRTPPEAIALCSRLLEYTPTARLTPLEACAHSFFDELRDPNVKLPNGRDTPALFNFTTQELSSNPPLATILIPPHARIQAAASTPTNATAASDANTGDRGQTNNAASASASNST
Kind of experiment: GSK3b TR-FRET kinase inhibition assay. The class given is biochemical. The gist of the method: as §1

[3] abbreviates: 100 μM ATP, read-out: GSK3a 100 μM ATP Average IC50.
Setting [4] is: 100 μM ATP, read-out: GSK3b 100 μM ATP Average IC50.
The mark [5] stands for this setting: 1 mM ATP, Table 3, read-out: GSK3b TR-FRET 1 mM ATP Average IC50.
The mark [6] stands for this setting: 4 μM ATP, read-out: GSK3α TR-FRET 4 μM ATP GMean IC50.
Where [7] appears, read: 2 μM ATP, read-out: GSK3β TR-FRET 2 μM ATP GMean IC50.
The mark [8] stands for this setting: 1 mM ATP, Table 3, read-out: GSK3a TR-FRET 1 mM ATP Average IC50.
Setting [9] is: 1 mM ATP, Table 5, read-out: GSK3α TR-FRET 1 mM ATP Average IC50.
The mark [10] stands for this setting: 1 mM ATP, Table 5, read-out: GSK3β TR-FRET 1 mM ATP Average IC50.

For the compound `CCc1cnc2c(c1)C(C)(c1ccccc1)C1=C(CC(C)(C)CC1=O)N2` (single isomer, unassigned) [Compound 113A], the results for the pIC50 in experiment [1] (setting [3]), in experiment [2] (setting [4]) and in experiment [2] (setting [5]) were 5.30 to 6.00, 6.00 to 7.00 and 5.30 to 6.00, respectively.

As to `CCC1(c2cccc(C(C)C)c2)C2=C(CC(C)(C)CC2=O)Nc2ncccc21` (single isomer, unassigned) [Compound 1011A], the pIC50 in experiment [1] (setting [6]) and in experiment [2] (setting [7]) was less than 5.30 throughout.

`COc1cncc(F)c1-c1cccc(C2(C)C3=C(CC(C)(C)CC3=O)Nc3ncc(F)cc32)c1` (single isomer, unassigned) [Compound 156A]: the pIC50 in experiment [1] (setting [8]) was not below 7.00; in experiment [2] (setting [5]), 6.00 to 7.00.

As for `CCC1(c2cccc(-c3ccnc(C)c3C)c2)C2=C(CC(C)(C)CC2=O)Nc2ncc(F)cc21` (single isomer, unassigned) [Compound 1035B], the negative logarithm of the IC50 (pIC50) in experiment [1] (setting [6]) and in experiment [2] (setting [7]) was 5.30 to 6.00 throughout.

For `CCC1(c2ccccc2)C2=C(Nc3ncccc31)C(F)C(C)(C)CC2=O` (single isomer, unassigned) [Compound 1006A], the pIC50 in experiment [1] (setting [6]) and in experiment [2] (setting [7]) was less than 5.30 throughout.

On to `CC1(C)CC(=O)C2=C(C1)Nc1ncc(CO)c(C#N)c1C2(C)c1ccccc1` (single isomer, unassigned) [613B], for which the results for the negative-log IC50 (pIC50) in experiment [1] (setting [9]) and in experiment [2] (setting [10]) were 4.70 to 5.30 and 5.30 to 6.00, respectively.

For the compound `CC1(C)CC(=O)C2=C(C1)Nc1ncc(F)c(C(F)(F)F)c1C2(C)c1ccccc1` (single isomer, unassigned) [Compound 135B], the pIC50 in experiment [1] (setting [8]) was 4.70 to 5.30; in experiment [2] (setting [5]), 5.30 to 6.00.

As to `COc1cnc2c(c1C1CC1)C(C)(c1ccccc1)C1=C(CC(C)(C)CC1=O)N2` (single isomer, unassigned) [626B], the negative-log IC50 (pIC50) is 4.70 to 5.30 in experiment [1] (setting [9]) and 5.30 to 6.00 in experiment [2] (setting [10]).

For `CCC1(c2ccccc2)C2=C(CC(C)(C)NC2=O)Nc2ncccc21` (single isomer, unassigned) [Compound 1002B], the pIC50 in experiment [1] (setting [6]) and in experiment [2] (setting [7]) was 5.30 to 6.00 in each case.

Regarding `CCC1(c2cccc(-c3ccnc(C)c3)c2)C2=C(CC(C)(C)CC2=O)Nc2ncccc21` (single isomer, unassigned) [Compound 1021A], the negative-log IC50 (pIC50) in experiment [1] (setting [6]) and in experiment [2] (setting [7]) was less than 5.30 throughout.

For the compound `CC1(C)CC(=O)C2=C(C1)Nc1ncc(C(C)(F)F)c(C#N)c1C2(C)c1ccccc1` (single isomer, unassigned) [631B], the pIC50 in experiment [1] (setting [9]) and in experiment [2] (setting [10]) was 4.70 to 5.30 each time.

On to `CC1(C)CC(=O)C2=C(C1)Nc1ncccc1C2c1ccccc1` (stereo not shown) [Compound C1, reference compound], for which the negative-log IC50 (pIC50) in experiment [1] (setting [6]) and in experiment [2] (setting [7]) was less than 5.30 in each case.

For the compound `CC1(C)CC(=O)C2=C(C1)Nc1ncc(CF)c(C#N)c1C2(C)c1ccccc1` (single isomer, unassigned) [614A], the negative logarithm of the IC50 (pIC50) in experiment [1] (setting [9]) and in experiment [2] (setting [10]) was 4.70 to 5.30 in each case.

As for `CC1(C)CC2=C(C(=O)N1)C(C)(c1cccc(S(C)(=O)=O)c1)c1cc(F)cnc1N2` (single isomer, unassigned) [638B], the pIC50 in experiment [1] (setting [9]) and in experiment [2] (setting [10]) was 4.70 to 5.30 each time.

As to `CC(=O)c1cnc2c(c1C#N)C(C)(c1ccccc1)C1=C(CC(C)(C)CC1=O)N2` (single isomer, unassigned) [621A], the pIC50 in experiment [1] (setting [9]) and in experiment [2] (setting [10]) was 4.70 to 5.30 each time.

Consider `CC1(C)CC(=O)C2=C(C1)Nc1ncc(Br)c(F)c1C2(C)c1ccccc1` (single isomer, unassigned) [Compound 140A], for which the figures for the pIC50 in experiment [1] (setting [8]) and in experiment [2] (setting [5]) were 5.30 to 6.00 and 6.00 to 7.00, respectively.

For `CC(C)c1cnc2c(c1)C(C)(c1ccccc1)C1=C(CC(C)(C)CC1=O)N2` (single isomer, unassigned) [Compound 119A], the negative-log IC50 (pIC50) was 6.00 to 7.00 in experiment [1] (setting [3]), 4.70 to 5.30 in experiment [1] (setting [8]), 6.00 to 7.00 in experiment [2] (setting [4]) and 5.30 to 6.00 in experiment [2] (setting [5]).

For `CC1(C)CC(=O)C2=C(C1)Nc1ncc(C(F)(F)F)cc1C2(C)c1cccc(S(C)(=O)=O)c1` (single isomer, unassigned) [Compound 157B], the negative logarithm of the IC50 (pIC50) in experiment [1] (setting [8]) and in experiment [2] (setting [5]) was 4.70 to 5.30 throughout.

For `CCC1(c2cccc(-c3cnn(C)c3)c2)C2=C(CC(C)(C)CC2=O)Nc2ncccc21` (single isomer, unassigned) [Compound 1018A], the pIC50 in experiment [1] (setting [6]) and in experiment [2] (setting [7]) was less than 5.30 each time.

Turning to `COc1cncc(CC(C)(C)C)c1-c1cccc(C2(C)C3=C(CC(C)(C)CC3=O)Nc3ncccc32)c1` (single isomer, unassigned) [Compound 172A], the negative logarithm of the IC50 (pIC50) in experiment [1] (setting [8]) and in experiment [2] (setting [5]) was 6.00 to 7.00 throughout.

For the compound `CC1(C)CC(=O)C2=C(C1)Nc1ncccc1C2(C)c1ccccc1` (single isomer, unassigned) [Compound 101B], the pIC50 was 4.70 to 5.30 in experiment [1] (10 μM ATP, read-out: GSK3a 10 μM ATP Average IC50); 4.22 to 4.70 in experiment [1] (setting [3]); 5.30 to 6.00 in experiment [2] (10 μM ATP, read-out: GSK3b 10 μM ATP Average IC50); 4.22 to 4.70 in experiment [2] (setting [4]).

Regarding `Cn1ncc2c3c(ncc21)NC1=C(C(=O)CC(C)(C)C1)C3(C)c1cccc(S(C)(=O)=O)c1` (single isomer, unassigned) [649B], the negative logarithm of the IC50 (pIC50) in experiment [1] (setting [9]) and in experiment [2] (setting [10]) was 4.70 to 5.30 each time.

Regarding `COc1cncc(F)c1-c1cccc(C2(C)C3=C(CC(C)(C)CC3=O)Nc3ncc(F)cc32)c1` (single isomer, unassigned) [Compound 156B], the pIC50 in experiment [1] (setting [8]) and in experiment [2] (setting [5]) was 4.70 to 5.30 throughout.

`CN1C(=O)C2=C(CC1(C)C)Nc1ncc(C(F)F)c(C#N)c1C2(C)c1ccccc1` (single isomer, unassigned) [632B]: the pIC50 in experiment [1] (setting [9]) and in experiment [2] (setting [10]) was 6.00 to 7.00 in each case.

For the compound `C=C(C)c1cnc2c(c1C#N)C(C)(c1ccccc1)C1=C(CC(C)(C)CC1=O)N2` (single isomer, unassigned) [620A], the pIC50 in experiment [1] (setting [9]) and in experiment [2] (setting [10]) was 4.70 to 5.30 in each case.

On to `CC1(C)CC(=O)C2=C(C1)Nc1ncc(F)c(C3CC3)c1C2(C)c1ccccc1` (single isomer, unassigned) [Compound 125A], for which the pIC50 in experiment [1] (setting [8]) and in experiment [2] (setting [5]) was 6.00 to 7.00 throughout.

As to `CC1(C)CC(=O)C2=C(C1)Nc1ncccc1C2(C)c1cccc(-c2ccncc2)c1` (single isomer, unassigned) [Compound 131B], the pIC50 in experiment [1] (setting [8]) and in experiment [2] (setting [5]) was 5.30 to 6.00 in each case.

Consider `CN1C(=O)C2=C(CC1(C)C)Nc1ncc(F)c(C#N)c1C2(C)c1ccccc1` (single isomer, unassigned) [615B], for which the negative logarithm of the IC50 (pIC50) in experiment [1] (setting [9]) and in experiment [2] (setting [10]) was not below 7.00 each time.

Regarding `CC(C)Oc1cccc(C2(C)C3=C(CC(C)(C)CC3=O)Nc3ncc(F)c(C#N)c32)c1` (single isomer, unassigned) [639B], the negative logarithm of the IC50 (pIC50) in experiment [1] (setting [9]) and in experiment [2] (setting [10]) was not below 7.00 each time.

Consider `CC1(C)CC(=O)C2=C(C1)Nc1ncc(C(F)(F)F)c(Cl)c1C2(C)c1ccccc1` (single isomer, unassigned) [Compound 141B], for which the pIC50 in experiment [1] (setting [8]) and in experiment [2] (setting [5]) was 5.30 to 6.00 throughout.

For `CC1(C)CC(=O)C2=C(C1)Nc1ncc(I)c(Br)c1C2(C)c1ccccc1` (single isomer, unassigned) [657A], the negative-log IC50 (pIC50) in experiment [1] (setting [9]) and in experiment [2] (setting [10]) was 4.70 to 5.30 each time.

Turning to `CCC1(c2cccc(C(F)(F)F)c2)C2=C(CC(C)(C)CC2=O)Nc2ncccc21` (single isomer, unassigned) [Compound 1014B], the pIC50 in experiment [1] (setting [6]) is not below 7.00; in experiment [2] (setting [7]), 6.00 to 7.00.

As for `CC1(C)CC(=O)C2=C(C1)Nc1nccc(CC(F)(F)F)c1C2(C)c1ccccc1` (single isomer, unassigned) [Compound 132B], the figures for the pIC50 in experiment [1] (setting [8]) and in experiment [2] (setting [5]) were 4.70 to 5.30 and 5.30 to 6.00, respectively.

Consider `CC1(C)CC(=O)C2=C(C1)Nc1ncc(Br)c(F)c1C2(C)c1ccccc1` (single isomer, unassigned) [Compound 140B], for which the negative logarithm of the IC50 (pIC50) in experiment [1] (setting [8]) and in experiment [2] (setting [5]) was 4.70 to 5.30 throughout.

`CCC1(c2cccc(-c3cn(C)nc3C)c2)C2=C(CC(C)(C)CC2=O)Nc2ncc(F)cc21` (single isomer, unassigned) [Compound 1032A]: the figures for the pIC50 in experiment [1] (setting [6]) and in experiment [2] (setting [7]) were not below 7.00 and 6.00 to 7.00, respectively.

As to `CC1(C)CC(=O)C2=C(C1)Nc1ncc(C#N)cc1C2(C)c1ccccc1` (single isomer, unassigned) [Compound 109B], the negative-log IC50 (pIC50) in experiment [1] (setting [8]) and in experiment [2] (setting [5]) was 4.70 to 5.30 in each case.

Consider `CCC1(c2cccc(-c3cnnc(C)c3)c2)C2=C(CC(C)(C)CC2=O)Nc2ncccc21` (single isomer, unassigned) [Compound 1022A], for which the negative-log IC50 (pIC50) in experiment [1] (setting [6]) and in experiment [2] (setting [7]) was 6.00 to 7.00 throughout.

On to `CNc1cnc2c(c1C#N)C(C)(c1ccccc1)C1=C(CC(C)(C)CC1=O)N2` (single isomer, unassigned) [610B], for which the pIC50 in experiment [1] (setting [9]) and in experiment [2] (setting [10]) was 4.70 to 5.30 in each case.

On to `CC1(C)CC2=C(C(=O)N1)C(C)(c1ccccc1)c1c(ncc(C(F)F)c1C#N)N2` (single isomer, unassigned) [628B], for which the figures for the pIC50 in experiment [1] (setting [9]) and in experiment [2] (setting [10]) were 5.30 to 6.00 and 6.00 to 7.00, respectively.

For the compound `CC(C)(C)Cc1cncc(F)c1-c1cccc(C2(C)C3=C(CC(C)(C)CC3=O)Nc3ncc(F)cc32)c1` (single isomer, unassigned) [Compound 173A], the pIC50 in experiment [1] (setting [8]) and in experiment [2] (setting [5]) was 5.30 to 6.00 each time.

The term pIC50 denotes the negative decadic logarithm of the IC50, by convention in mol/L.
